Assay results: US8927550B2, “Heterocyclic compounds as CCR1 receptor antagonists” (Boehringer Ingelheim International GmbH, priority 2009, dated 2015)

Target: T1, CCR1 (Homo sapiens, UniProt P32246)
T1 construct: host or cells: Non-adherent cells
T1 sequence (P32246 1-355): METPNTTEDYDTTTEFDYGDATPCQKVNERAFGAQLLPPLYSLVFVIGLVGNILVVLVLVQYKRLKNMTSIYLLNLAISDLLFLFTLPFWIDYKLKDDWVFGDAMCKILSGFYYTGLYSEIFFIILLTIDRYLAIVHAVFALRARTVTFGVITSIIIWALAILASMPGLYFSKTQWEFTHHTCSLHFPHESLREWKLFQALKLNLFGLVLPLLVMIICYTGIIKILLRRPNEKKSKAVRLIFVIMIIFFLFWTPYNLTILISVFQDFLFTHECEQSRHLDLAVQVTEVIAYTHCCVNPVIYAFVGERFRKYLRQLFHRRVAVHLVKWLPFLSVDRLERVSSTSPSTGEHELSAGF
Experiment: Calcium flux in CCR1 transfected cells, Method B (Calcium 4 dye, HAMAMATSU FDSS6000), MIP-1alpha at EC80
Format: cell-based
Conditions: cells stably expressing recombinant CCR1 and G-alpha-16, 30 minutes at 37 C then 30 minutes at room temperature
Method: Compounds are assessed for the ability to block the interaction of CCR1 and MIP-1α in a functional cellular assay measuring calcium flux in CCR1 transfected cells.
Method B: Non-adherent cells purchased from Chemicon Corporation (HTS005C), stably expressing recombinant CCR1 and G-alpha-16 are grown in RPMI 1640 medium (Mediatech 10-080-CM) supplemented with 10% FBS, 0.4 mg/mL Geneticin and penicillin/streptomycin. On the day of the assay, the cells are loaded with Calcium 4 dye (Molecular Devices R7448) with Probenecid (Invitrogen P346400) at 8E5 cells/mL for 1 hour at room temperature. After 1 hour, they are seeded in a 384-well tissue culture-treated plate at a density of 20,000 cells/well. Appropriately diluted test compound is added to the well to achieve a top concentration of 3,000 nM (diluted 4-fold with 10 doses total). The final concentration of DMSO is 1%. The buffer is HBSS (Invitrogen 14025) with 20 mM HEPES at pH 7.4. The cells incubate 30 minutes at 37 C and then 30 minutes at room temperature. The plates are transferred to the HAMAMATSU FDSS6000 where MIP-1alpha in 1% BSA is added at the EC80 final concentration. All plates must be read within 4 hours of the start of dye-loading. Wells+/−MIP-1alpha containing diluted DMSO instead of compound serve as the controls. Data are analyzed using Activity Base software.

IC50 [nM]	SMILES
91	CS(=O)(=O)c1cc(CNC(=O)c2nncc3c2cnn3-c2ccc(F)cc2)ccn1 [1-(4-Fluorophenyl)-1H-pyrazolo[3,4-d]pyridazine-4-carboxylic acid (2-methanesulfonyl-pyridin-4-ylmethyl)-amide]
57	C[C@H](NC(=O)c1nncc2c1cnn2-c1ccc(F)cc1)c1ccnc(S(C)(=O)=O)c1 [1-(4-Fluorophenyl)-1H-pyrazolo[3,4-d]pyridazine-4-carboxylic acid [(S)-1-(2-methanesulfonyl-pyridin-4-yl)-ethyl]-amide]
3	CC[C@H](NC(=O)c1nncc2c1cnn2-c1ccc(F)cc1)c1ccnc(S(C)(=O)=O)c1 [1-(4-Fluorophenyl)-1H-pyrazolo[3,4-d]pyridazine-4-carboxylic acid [(S)-1-(2-methanesulfonyl-pyridin-4-yl)-propyl]-amide]
44	CC[C@H](NC(=O)c1nncc2c1cnn2-c1ccc(F)cc1)c1ccc(S(C)(=O)=O)nc1 [1-(4-Fluorophenyl)-1H-pyrazolo[3,4-d]pyridazine-4-carboxylic acid [(S)-1-(6-methanesulfonyl-pyridin-3-yl)-propyl]-amide]
565	CS(=O)(=O)c1cccc(CNC(=O)c2cncc3c2ccn3-c2ccc(F)cc2)c1 [1-(4-Fluorophenyl)-1H-pyrrolo[2,3-c]pyridine-4-carboxylic acid 3-methanesulfonyl-benzylamide]
455	CS(=O)(=O)c1cc(CNC(=O)c2cncc3c2ccn3-c2ccc(F)cc2)ccn1 [1-(4-Fluorophenyl)-1H-pyrrolo[2,3-c]pyridine-4-carboxylic acid (2-methanesulfonyl-pyridin-4-ylmethyl)-amide]
45	C[C@H](NC(=O)c1cncc2c1ccn2-c1ccc(F)cc1)c1ccnc(S(C)(=O)=O)c1 [1-(4-Fluorophenyl)-1H-pyrrolo[2,3-c]pyridine-4-carboxylic acid [(S)-1-(2-methanesulfonyl-pyridin-4-yl)-ethyl]-amide]
2	CC[C@H](NC(=O)c1cncc2c1ccn2-c1ccc(F)cc1)c1ccnc(S(C)(=O)=O)c1 [1-(4-Fluorophenyl)-1H-pyrrolo[2,3-c]pyridine-4-carboxylic acid [(S)-1-(2-methanesulfonyl-pyridin-4-yl)-propyl]-amide]
23	CC[C@H](NC(=O)c1cncc2c1ccn2-c1ccc(F)cc1)c1cnc(S(C)(=O)=O)s1 [1-(4-Fluorophenyl)-1H-pyrrolo[2,3-c]pyridine-4-carboxylic acid [(S)-1-(2-methanesulfonyl-thiazol-5-yl)-propyl]-amide]
2	CC[C@H](NC(=O)c1cncc2c1ccn2-c1ccc(F)cc1)c1cncc(S(C)(=O)=O)c1 [1-(4-Fluorophenyl)-1H-pyrrolo[2,3-c]pyridine-4-carboxylic acid [(S)-1-(5-methanesulfonyl-pyridin-3-yl)-propyl]-amide]
21	CC[C@H](NC(=O)c1cncc2c1ccn2-c1ccc(F)cc1)c1ccc(S(C)(=O)=O)nc1 [1-(4-Fluorophenyl)-1H-pyrrolo[2,3-c]pyridine-4-carboxylic acid [(S)-1-(6-methanesulfonyl-pyridin-3-yl)-propyl]-amide]
1400	CNS(=O)(=O)c1ccc(CNC(=O)c2cc(O)cc3c2ccn3-c2ccc(F)cc2)cc1 [1-(4-Fluorophenyl)-6-hydroxy-1H-indole-4-carboxylic acid 4-methylsulfamoyl-benzylamide]
260	CC[C@H](NC(=O)c1cc(S(C)(=O)=O)cc2c1ccn2-c1ccc(F)cc1)c1ccc(S(C)(=O)=O)nc1 [1-(4-Fluorophenyl)-6-methanesulfonyl-1H-indole-4-carboxylic acid [(S)-1-(6-methanesulfonyl-pyridin-3-yl)-propyl]-amide]
96	CC[C@H](NC(=O)c1cccc2c(-c3ccc(F)cc3)ncn12)c1ccc(Br)nc1 [1-(4-Fluorophenyl)-imidazo[1,5-a]pyridine-5-carboxylic acid [(S)-1-(6-bromopyridin-3-yl)-propyl]-amide]
19	CC[C@H](NC(=O)c1cccc2c(-c3ccc(F)cc3)ncn12)c1ccc(S(C)(=O)=O)nc1 [1-(4-Fluorophenyl)-imidazo[1,5-a]pyridine-5-carboxylic acid [(S)-1-(6-methanesulfonyl-pyridin-3-yl)-propyl]-amide]
1100	CCC[C@H](NC(=O)c1cccn2c(-c3ccc(F)cc3)cnc12)c1ccc(Br)nc1 [3-(4-Fluorophenyl)-imidazo[1,2-a]pyridine-8-carboxylic acid [(S)-1-(6-bromopyridin-3-yl)-butyl]-amide]

IC50 [nM]	SMILES
1340	CC[C@H](NC(=O)c1cccn2c(-c3ccc(F)cc3)cnc12)c1ccc(Br)nc1 [3-(4-Fluorophenyl)-imidazo[1,2-a]pyridine-8-carboxylic acid [(S)-1-(6-bromopyridin-3-yl)-propyl]-amide]
600	CS(=O)(=O)c1cc(CNC(=O)c2nccn3c(-c4ccc(F)cc4)ncc23)ccn1 [3-(4-Fluorophenyl)-imidazo[1,5-a]pyrazine-8-carboxylic acid (2-methanesulfonyl-pyridin-4-ylmethyl)-amide]
1100	CC(C)(NC(=O)c1nccn2c(-c3ccc(F)cc3)ncc12)c1ccnc(Br)c1 [3-(4-Fluorophenyl)-imidazo[1,5-a]pyrazine-8-carboxylic acid [1-(2-bromopyridin-4-yl)-1-methyl-ethyl]-amide]
410	CS(=O)(=O)c1cc(C2(NC(=O)c3nccn4c(-c5ccc(F)cc5)ncc34)CC2)ccn1 [3-(4-Fluorophenyl)-imidazo[1,5-a]pyrazine-8-carboxylic acid [1-(2-methanesulfonyl-pyridin-4-yl)-cyclopropyl]-amide]
5	CCC[C@H](NC(=O)c1nccn2c(-c3ccc(F)cc3)ncc12)c1ccnc(S(C)(=O)=O)c1 [3-(4-Fluorophenyl)-imidazo[1,5-a]pyrazine-8-carboxylic acid [(S)-1-(2-methanesulfonyl-pyridin-4-yl)-butyl]-amide]
30	CC[C@H](NC(=O)c1nccn2c(-c3ccc(F)cc3)ncc12)c1ccnc(S(C)(=O)=O)c1 [3-(4-Fluorophenyl)-imidazo[1,5-a]pyrazine-8-carboxylic acid [(S)-1-(2-methanesulfonyl-pyridin-4-yl)-propyl]-amide]
6	CCC[C@H](NC(=O)c1nccn2c(-c3ccc(F)cc3)ncc12)c1cncc(S(C)(=O)=O)c1 [3-(4-Fluorophenyl)-imidazo[1,5-a]pyrazine-8-carboxylic acid [(S)-1-(5-methanesulfonyl-pyridin-3-yl)-butyl]-amide]
2	CC[C@H](NC(=O)c1cccn2c(-c3ccc(F)cc3)ncc12)c1ccnc(S(C)(=O)=O)c1 [3-(4-Fluorophenyl)-imidazo[1,5-a]pyridine-8-carboxylic acid [(S)-1-(2-methanesulfonyl-pyridin-4-yl)-propyl]-amide]
29	CC[C@H](NC(=O)c1cccn2c(-c3ccc(F)cc3)ncc12)c1ccc(Br)nc1 [3-(4-Fluorophenyl)-imidazo[1,5-a]pyridine-8-carboxylic acid [(S)-1-(6-bromopyridin-3-yl)-propyl]-amide]
17	CC[C@H](NC(=O)c1cccn2c(-c3ccc(F)cc3)ncc12)c1ccc(S(C)(=O)=O)nc1 [3-(4-Fluorophenyl)-imidazo[1,5-a]pyridine-8-carboxylic acid [(S)-1-(6-methanesulfonyl-pyridin-3-yl)-propyl]-amide]
2	CS(=O)(=O)c1cccc(CNC(=O)c2cc(C#N)cc3c2ccn3-c2ccc(F)cc2)c1 [6-Cyano-1-(4-fluorophenyl)-1H-indole-4-carboxylic acid 3-methanesulfonyl-benzylamide]
18	CN1CCC(NS(=O)(=O)c2ccc(CNC(=O)c3cc(C#N)cc4c3ccn4-c3ccc(F)cc3)cc2)CC1 [6-Cyano-1-(4-fluorophenyl)-1H-indole-4-carboxylic acid 4-(1-methyl-piperidin-4-ylsulfamoyl)-benzylamide]
4	CS(=O)(=O)c1ccc(CNC(=O)c2cc(C#N)cc3c2ccn3-c2ccc(F)cc2)cn1 [6-Cyano-1-(4-fluorophenyl)-1H-indole-4-carboxylic acid (6-methanesulfonyl-pyridin-3-ylmethyl)-amide]
4	CS(=O)(=O)Nc1ccc(CNC(=O)c2cc(C#N)cc3c2ccn3-c2ccc(F)cc2)cn1 [6-Cyano-1-(4-fluorophenyl)-1H-indole-4-carboxylic acid (6-methanesulfonylamino-pyridin-3-ylmethyl)-amide]
0.8	CS(=O)(=O)c1cc(C2(NC(=O)c3cc(C#N)cc4c3ccn4-c3ccc(F)cc3)CC2)ccn1 [6-Cyano-1-(4-fluorophenyl)-1H-indole-4-carboxylic acid [1-(2-methanesulfonyl-pyridin-4-yl)-cyclopropyl]-amide]
